Data from patent US20230399358A1, “IMMUNOGLOBULIN PURIFICATION PEPTIDES AND THEIR USE” (North Carolina State University, priority 2019, published 2023).

Columns and labels:
human IgG = format: binding; conditions: peptide on Toyopearl AF-amino-650M, 30 min, room temperature
Experimental: (§1) Measurement of IgG binding by peptide-based chromatographic adsorbents: For initial studies, 35 mg of MWRGWQ (SEQ ID NO:2)-Toyopearl, RHLGWF (SEQ ID NO:3)-Toyopearl, WQRHGI (SEQ ID NO:1)-Toyopearl, GWLHQR (SEQ ID NO:4)-Toyopearl, and HWRGWV (SEQ ID NO:18)-Toyopearl (control) resins were equilibrated in PBS pH 7.4, reaching a swollen volume of 0.1 mL, and subsequently incubated with 1 mg/mL IgG in 0.205 mg/mL CHO cell culture supernatant for 30 minutes. The resins were subsequently washed several times with PBS to remove non-specifically bound proteins. Elution was performed with 100 mM glycine buffer pH 2.5. Flowthrough and elution fractions were collected and analyzed by SDS PAGE under reducing conditions. The resulting gels were stained with Coomassie staining. Further, 25 mg of the adsorbents MWRGWQ (SEQ ID NO:2)-Toyopearl, NIFRGWQ (SEQ ID NO:21)-Toyopearl, MWRAWQ (SEQ ID NO:5)-Toyopearl, MWRGFQ (SEQ ID NO:7)-Toyopearl, MWRGWN (SEQ ID NO:22)-Toyopearl, (NorL) WRGWQ (SEQ ID NO:23)-Toyopearl, MGRGWQ (SEQ ID NO:24)-Toyopearl, MWRWQ (SEQ ID NO:6)-Toyopearl, MWRGGQ (SEQ ID NO:26)-Toyopearl, GWRGWQ (SEQ ID NO:8)-Toyopearl, WQRHGI (SEQ ID NO:1)-Toyopearl, WNRHGI (SEQ ID NO:12)-Toyopearl, WQRAGI (SEQ ID NO:28)-Toyopearl, WQRHAI (SEQ ID NO:11)-Toyopearl, WQRHGL (SEQ ID NO:9)-Toyopearl, FQRHGI (SEQ ID NO:29)-Toyopearl, and WQRHGV (SEQ ID NO:10)-Toyopearl resins were equilibrated in PBS pH 7.4, reaching a swollen volume of 0.1 mL, and subsequently incubated with 1 mg/mL IgG in PBS at pH 7.4 for 30 minutes. The amount of unbound IgG in the supernatant samples was quantified by Bradford assay and utilized to determine the IgG binding % by the peptide variants.
A limited library of residue-by-residue changes confirmed the importance of each residue in peptides WQRHGI (SEQ ID NO:1) and MWRGWQ (SEQ ID NO:2) in reducing the binding energy between the peptide and the IgG target. […] This was accomplished by designing and constructing an ensemble of 20 variants of peptides WQRHGI (SEQ ID NO:1) and MWRGWQ (SEQ ID NO:2). Selected residues in positions 1-6 were mutated. The peptide variants were synthesized directly on Toyopearl AF-amino-650M resin via Fmoc/tBu chemistry. The resulting adsorbents were incubated with a solution of human IgG at 2 mg/mL at a ratio of 1 mL of resin per 3.5 mL of solution for 30 min at room temperature. The residual concentration of IgG in solution was determined by Bradford concentration assay of the supernatants and utilized to calculate the amounts of bound IgG per volume of resin; Table 7 reports the % binding, defined as mg IgG bound by variant/mg IgG bound by original sequence (either WQRHGI (SEQ ID NO:1) or MWRGWQ (SEQ ID NO:2))×100%, of each sequence variant.

[1] = tested on: human polyclonal IgG in CHO-S cell culture fluid; assay: Static purification of IgG from CHO cell culture supernatant on peptide-Toyopearl resins, SDS-PAGE densitometry; conditions: Gel B
Experimental: as §1
Characterization of IgG-binding peptide variants WQRHGI (SEQ ID NO:1), MWRGWQ (SEQ ID NO:2), RHLGWF (SEQ ID NO:3), and GWLHQR (SEQ ID NO:4) in competitive conditions: The four selected sequence variants were tested for their ability to purify human IgG from a CHO cell culture supernatant and found largely to mirror their in silico predictions. Even though they seemed to underperform in silico, RHLGWF (SEQ ID NO:3) and GWLHQR (SEQ ID NO:4) were tested alongside WQRHGI (SEQ ID NO:1) and MWRGWQ (SEQ ID NO:2) in these conditions in order to confirm their ability to bind IgG and examine their selectivity as predicted in silico. The feedstock was prepared by spiking human polyclonal IgG into a clarified null CHO-S cell culture fluid to obtain an IgG concentration of 1 mg/mL and a CHO HCP concentration of 0.205 mg/mL. An aliquot of 500 μL was loaded onto each peptide adsorbent in static conditions for 30 min. Following a washing step with PBS to remove loosely bound proteins, a first elution step was conducted using 0.1 M glycine buffer pH 2.5 to remove all bound proteins. Flow through fractions and pH 2.5 elution fractions were loaded neat and analyzed by SDS PAGE (FIGS. 6A-6B). The values of IgG purity in the eluted fractions were determined by densitometric analysis of the corresponding lanes on the gels, and are reported in Table 9.

human polyclonal IgG = assay: Static binding isotherm on WorkBeads adsorbents, Langmuir fit; conditions: WorkBeads adsorbent, PBS pH 7.4, Langmuir fit
Text: Measurements of static and dynamic binding capacity: […] NO:2)-Workbeads and […] NO:30)-Workbeads were characterized in terms of static and dynamic binding capacity respectively by batch and breakthrough binding studies. The peptides […] NO:3) and […] NO:4) were not selected for further studies due to their low selectivity and low yield, respectively. […] The resin was pelleted by centrifugation and the supernatant removed. […] The resulting fractions were combined and analyzed by BCA assay to quantify the unbound IgG and, accordingly, the amount of IgG adsorbed. The resulting data were fit to a Langmuir isotherm to determine the values of Qmax and KD(Solid). […] The amount of unbound IgG was determined by analyzing the supernatants via Micro BCA Protein Assay Kit. The amount of bound IgG per volume of resin (Q) was determined by mass balance and plotted against the corresponding equilibrium concentration of unbound IgG in solution (CIgG). The data were fit to a Langmuir isotherm model, thus providing a value of maximum binding capacity (Qmax) and dissociation constant (KD).

WQRHGI
% Binding (mg IgG bound by variant/mg IgG bound by original sequence × 100%) (human IgG): 100.00% | % Purity (IgG over total proteins) ([1]; lane FT (flow-through)): 52.71% | % Purity (IgG over total eluted proteins) ([1]; lane R (pH 2.5)): 78.79% | Qmax (human polyclonal IgG): 52.6 mg IgG/mL resin | Kd (human polyclonal IgG; read-out: KD(Solid)): 3.2 µM
